Key:
[1] = tested on: 22rv1 tumor-bearing Balb/c Nude mouse; test: Treatment efficacy in 22RV1 tumor-bearing mouse model; type: in vivo; conditions: for T/C: 21st day; for Tumor volume, 21st day of group administration: mean ± standard error
Method: Balb/c Nude mouse, approximately 6-8 weeks old, were subcutaneously inoculated with 3×10^6 22rv1 cells (in 50% Matrigel, Corning) into the right scapular region. Once the tumors reached the required size for the experiment, the animals were randomly assigned into 11 experimental groups based on tumor volume, with 5 mouse per group. The body weight and tumor size of the animals were measured. On the day of grouping, treatments were administered as follows: control group (normal saline), group 1 (^177Lu-DB-13, 0.15 mCi/mouse), group 2 (^177Lu-DB-13, 0.45 mCi/mouse), group 3 (^177Lu-DB-13, 0.05 mCi/mouse), group 4 (^177Lu-B-11, 0.05 mCi/mouse), group 5 (^177Lu-DB-11, 0.15 mCi/mouse), group 6 (^177Lu-DB-11, 0.45 mCi/mouse), group 7 (^177Lu-PSMA-617, 0.15 mCi/mouse), group 8 (^177Lu-PSMA-617, 0.45 mCi/mouse), group 9 (^177Lu-DB-19, 0.05 mCi/mouse), group 10 (^177Lu-DB-19, 0.15 mCi/mouse), group 11 (^177Lu-DB-19, 0.45 mCi/mouse). After the start of treatment, general health and appearance were observed daily. Body weight and tumor size were measured at each sampling time point. Any abnormal observations during the study were recorded in the raw data.

[2] = tested on: albumin in rat plasma; test: Plasma protein binding (PPB) test by ultrafiltration; type: in vitro ADME; conditions: 177Lu-labeled compound
Method: The labeled compounds ^177Lu-E-3, 177Lu-DB-13, 177Lu-DB-18, and ^177Lu-DB-19 (1 μCi) were prepared in a reaction solution by adding 50 μL of PBS to achieve a concentration of 20 μCi/mL. 50 μL of the 20 μCi/mL reaction solution was added to 200 μL of plasma, repeated for 3 tubes. The mixture was mixed well and incubated at room temperature for 10 minutes, then added to ultrafiltration tubes and centrifuged at 13000 rpm for 45 minutes. Following this, 50 μL of normal saline was added and the samples were centrifuged again for 15 minutes. The upper chamber and the filtrate were respectively counted for radioactivity.
PPB=[(upper chamber counts−background counts]/(filtrate counts+upper chamber counts−2*background counts)]*100%.

[3] = molecular target: PSMA protein (Homo sapiens (Human), UniProt Q04609); test: Affinity of DB compounds to PSMA protein using Biacore (Effect Example 3); conditions: Biacore 8K, 15° C., 1:1 binding model; pKD=−Log KD
Method: The affinity of DB compounds to PSMA protein was tested using the Biacore 8K (Cytiva) instrument to detect ligand binding to PSMA protein (Sino Biological). PSMA protein was captured on an SA chip. Before fixing the ligand (flow paths 1 and 2, flow rate of 10 μL/min), PSMA protein (10 μg/mL, flow rate of 5 μL/min, injection time of 600 s) was fixed on flow path 2 using a flow buffer. The sensor surface was adjusted by continuously injecting 1 M NaCl three times in 50 mM NaOH. After each ligand injection, additional cleaning was performed using isopropanol in 1 M NaCl and 50 mM NaOH (flow paths 1 and 2, flow rate of 10 μL/min, injection time of 60 s).
All compounds were dissolved in 100% DMSO and diluted to 10 mM, then further diluted to the appropriate highest concentration in the analysis buffer (PBS, PH 7.4, 1 mM TCEP ([…]), 0.05% P20, 2% DMSO). The analysis was conducted under the following conditions: 15° C. analysis temperature; analysis steps=all set to LMW kinetics; cycle type=single cycle (90 s contact time, 1800 s dissociation time, 30 μL/min flow rate, flow paths 1 and 2); detection in flow=path 2-1. Data evaluation was performed using Biacore Insight Evaluation Software, fitting the data to a 1:1 binding model.
Biacore results are shown in Table 5: pKD=−Log KD, wherein KD is the binding affinity of the compound to PSMA protein measured by Biacore. It is expressed by Kd (M)=Kd (1/s)/Ka (1/Ms). A indicates pKD>8; B indicates 7<pKD<8; C indicates 6<pKD<7; D indicates pKD<6.

[4] = Determination of Log P (n-octanol/water partition); type: physicochemical; conditions: 177Lu-labeled compound, mean of three tubes
Method: Three EP tubes were prepared, each containing 0.1 mL of saturated n-octanol and 80 μL of ultrapure water. Then, 20 μL (approximately 1 MBq) of the ^177Lu-labeled DB-13, DB-18, and DB-19 compound solutions were added to the respective tubes. After shaking evenly, the tubes were centrifuged at room temperature (2000 r/min, 5 minutes, centrifugation radius of 10 cm). From each tube, 100 μL was taken from both the lipid layer and the aqueous layer, and the radioactivity counts per minute for both phases were measured. The Log P values were calculated, and their mean values were taken as the final result.

[5] = molecular target: PSMA-expressing cells (22Rv1) (Homo sapiens (Human), UniProt Q04609); test: Competitive binding against radiolabeled PSMA-617 ligand on 22Rv1 cells; conditions: unlabeled compound vs radiolabeled PSMA-617 ligand, on ice 2 hours
Method: (1) 22Rv1 cells in the logarithmic growth phase were prepared into a cell suspension, and the cell density was adjusted to 1×10^4 cells/mL. 1 mL of the cell suspension was seeded into each well of a 24-well cell culture plate. The cells were cultured overnight in a 37° C. incubator.
(2) The cell culture medium was aspirated, and the cells were washed once with PBS. Then, 975 μL of additive-free medium was added.
(3) To each well, 25 μL of a fixed concentration of radiolabeled PSMA-617 ligand (final concentration in the medium: 2 μCi/mL) and different concentrations (final concentrations in the medium: 1000 ng/ml, 100 ng/mL, 10 ng/mL, 1 ng/mL, 0.1 ng/mL, 0.01 ng/mL, 0.001 ng/mL, 0 ng/ml) of the unlabeled test blocking compounds DB-18, DB-19, DB-13, E-3 were added.
(4) The cells were incubated on ice for 2 hours.
(5) The cells were washed three times with ice-cold PBS.
(6) The cells were lysed with 0.5 mL of 1 M sodium hydroxide, and washed twice with 0.5 mL PBS. The sodium hydroxide (0.5 mL) and PBS (0.5 mL×2) solutions were collected for uptake counting.

[6] = tested on: PSMA-positive 22rv1 tumor-bearing mouse; test: 177Lu labeling and animal biodistribution experiment, gamma counter; type: in vivo; conditions: 177Lu-labeled compound, 24 h after tail vein injection, n = 2
Method: Distribution in PSMA-positive tumor-bearing mouse tissues: Tumor-bearing animals (purchased from Shanghai Alamo Pharmaceutical Technology Co., Ltd.) were subcutaneously inoculated with 3×10^6 22rv1 cells (in 50% Matrigel, Corning) into the right shoulder region of 6-9 week old (Balb/c Nude) mouse. Once the tumors had grown to an appropriate size, ^177Lu-radiolabeled DB compounds were injected into the mouse via the tail vein (approximately 1.85 MBq-3.7 MBq/mouse, specific activity: 22423.82 Kbq/μg). After administration, the animals were euthanized using carbon dioxide inhalation at 24 hours. The blood and organs (blood, liver, kidney, muscle, tumor) were collected.
Blood was collected through the abdominal aorta and 100 μL was immediately quantified into designated centrifuge tubes (weighed). After collection, the organs were washed twice with deionized water, dried, placed in pre-weighed tubes, and weighed again to calculate the sample weight. Samples were measured on the day of collection. All blood and tissue samples were measured for radioactivity using a gamma counter. The results are shown in FIGS. 3, 4, 5, 6, 7, and Table 6.

[7] = molecular target: hPSMA-biotin (Homo sapiens (Human), UniProt Q04609); test: Binding kinetics and affinity with PSMA protein by Biacore 8K (Effect Example 1); conditions: for Kd / kd / kon: 1:1 binding model; for kon: read-out: ka
Method: The dissociation constant was determined using the Biacore 8K (GE Healthcare) following the manufacturer's instructions. In brief, PSMA-bio protein, diluted in PBS pH 7.4 with 1 mM TCEP, 0.05% Tween 20, and 2% DMSO buffer, was immobilized on the flow cell of an SA sensor chip. Using PBS pH 7.4, 1 mM TCEP, 0.05% Tween 20, and 2% DMSO as the running buffer, five serial dilutions of the PSMA-targeting candidate molecules were injected into the flow cell at a rate of 30 μL/min, with a binding time of 90 seconds. The buffer flow was maintained for 1800 seconds to allow dissociation. The KD values for the interaction between the candidate small molecules and the PSMA protein were evaluated using Biacore 8K evaluation software 1.0 and a 1:1 binding model.

hPSMA-biotin, sequence (Q04609 whole entry): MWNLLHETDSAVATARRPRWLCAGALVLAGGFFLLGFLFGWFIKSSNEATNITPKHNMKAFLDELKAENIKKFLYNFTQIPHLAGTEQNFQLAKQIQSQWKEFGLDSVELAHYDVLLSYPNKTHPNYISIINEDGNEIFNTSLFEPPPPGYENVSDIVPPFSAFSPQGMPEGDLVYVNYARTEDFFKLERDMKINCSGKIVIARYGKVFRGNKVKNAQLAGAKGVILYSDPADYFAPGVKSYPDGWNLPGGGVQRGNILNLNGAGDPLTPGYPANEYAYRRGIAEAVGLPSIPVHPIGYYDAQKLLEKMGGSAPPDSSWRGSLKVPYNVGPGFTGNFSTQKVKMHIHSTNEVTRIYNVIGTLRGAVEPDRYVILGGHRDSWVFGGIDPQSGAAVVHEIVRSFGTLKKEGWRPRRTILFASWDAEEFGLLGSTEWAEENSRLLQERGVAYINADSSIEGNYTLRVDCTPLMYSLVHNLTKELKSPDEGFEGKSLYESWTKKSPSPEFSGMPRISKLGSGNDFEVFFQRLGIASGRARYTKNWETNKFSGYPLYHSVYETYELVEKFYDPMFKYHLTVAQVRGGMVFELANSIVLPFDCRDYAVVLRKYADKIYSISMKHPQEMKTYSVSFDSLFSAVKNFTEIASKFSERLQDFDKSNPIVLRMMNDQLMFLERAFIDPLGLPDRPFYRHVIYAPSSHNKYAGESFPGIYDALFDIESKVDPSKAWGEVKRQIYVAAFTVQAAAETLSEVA
PSMA protein, sequence (Q04609 whole entry): as above
PSMA-expressing cells (22Rv1), sequence (Q04609 whole entry): as above

| Structure (SMILES) | Kd [3] [nM] | Blood uptake [6] [% ID/g] | Kidney uptake [6] [% ID/g] | Liver uptake [6] [% ID/g] | Muscle uptake [6] [% ID/g] | Tumor uptake [6] [% ID/g] | other results |
| --- | --- | --- | --- | --- | --- | --- | --- |
| O=C([O-])CN1CCN(CC(=O)[O-])CCN(CC(=O)NCC2CCC(C(=O)N[C@@H](Cc3ccc4ccccc4c3)C(=O)NCCCC[C@H](NC(=O)N[C@@H](CCC(=O)O)C(=O)O)C(=O)O)CC2)CCN(CC(=O)[O-])CC1.[177Lu+3] (stereo partly drawn) [177Lu-PSMA-617] |  |  |  |  |  |  | T/C ([1]; 0.15 mCi/mouse): 97.41%; Tumor volume, 21st day of group administration ([1]; 0.15 mCi/mouse): 2,616.99 ± 203.91 mm^3; T/C ([1]; 0.45 mCi/mouse): 101.47%; Tumor volume, 21st day of group administration ([1]; 0.45 mCi/mouse): 2,726.19 ± 926.52 mm^3 |
| O=C(O)CC[C@H](NC(=O)N[C@@H](CCCCNC(=O)[C@H](Cc1ccc2ccccc2c1)NC(=O)c1ccc2c(c1)CCN(C(=O)CN1CCN(CC(=O)O)CCN(CC(=O)O)CCN(CC(=O)O)CC1)C2)C(=O)O)C(=O)O [Compound E-3, reference compound] | < 10 | 0.02 | 2.01 | 0.09 | 0.035 | 32.875 | plasma protein binding ratio (albumin binding ratio) [2]: 86.61%; logP [4]: -3.46; IC50 [5]: 2.06 nM |
| O=C(O)CC[C@H](NC(=O)N[C@@H](CCCCNC(=O)[C@H](Cc1ccc2ccccc2c1)NC(=O)[C@H]1CC[C@H](CNC(=O)c2cc(NC(=O)CN3CCN(CC(=O)O)CCN(CC(=O)O)CCN(CC(=O)O)CC3)cc(C(=O)NC[C@H]3CC[C@H](C(=O)N[C@@H](Cc4ccc5ccccc5c4)C(=O)NCCCC[C@H](NC(=O)N[C@@H](CCC(=O)O)C(=O)O)C(=O)O)CC3)c2)CC1)C(=O)O)C(=O)O [DB-01] | < 10 |  |  |  |  |  | binding affinity compared with PSMA-617 [7]: slightly higher than that of PSMA-617; Kd [7]: 0.12 nM; kd [7]: 2.65e-05 s⁻¹; kon [7]: 222000 M⁻¹ s⁻¹ |
| O=C(O)CC[C@H](NC(=O)N[C@@H](CCCCNC(=O)[C@H](Cc1ccc2ccccc2c1)NC(=O)c1ccc2c(c1)CCN(C(=O)CCC(=O)NCCCC[C@H](NC(=O)CCC(=O)N1CCc3cc(C(=O)N[C@@H](Cc4ccc5ccccc5c4)C(=O)NCCCC[C@H](NC(=O)N[C@@H](CCC(=O)O)C(=O)O)C(=O)O)ccc3C1)C(=O)NCCNC(=O)CN1CCN(CC(=O)O)CCN(CC(=O)O)CCN(CC(=O)O)CC1)C2)C(=O)O)C(=O)O [DB-11] | < 10 | 1.125 | 87.105 | 1.625 | 0.055 | 41.83 | tumor growth inhibition ([1]; high dose 0.45 mCi, effect decreased over time, remained higher than PSMA-617): a certain degree of tumor growth inhibition |
| O=C(O)CC[C@H](NC(=O)NC(CCCCNC(=O)[C@H](Cc1ccc2ccccc2c1)NC(=O)c1ccc2c(c1)CCN(C(=O)c1cc(NC(=O)CN3CCN(CC(=O)O)CCN(CC(=O)O)CCN(CC(=O)O)CC3)cc(C(=O)N3CCc4cc(C(=O)N[C@@H](Cc5ccc6ccccc6c5)C(=O)NCCCC[C@H](NC(=O)N[C@@H](CCC(=O)O)C(=O)O)C(=O)O)ccc4C3)c1)C2)C(=O)O)C(=O)O (stereo partly drawn) [DB-18] | < 10 |  |  |  |  |  | plasma protein binding ratio (albumin binding ratio) [2]: 70.51%; logP [4]: -1.86; IC50 [5]: 2.58 nM |
| O=C(O)CC[C@H](NC(=O)NC(CCCCNC(=O)[C@H](Cc1ccc2ccccc2c1)NC(=O)c1ccc(C2CCN(C(=O)CNC(=O)c3cc(NC(=O)COCCOCCNC(=O)CN4CCN(CC(=O)O)CCN(CC(=O)O)CCN(CC(=O)O)CC4)cc(C(=O)NCC(=O)N4CCC(c5ccc(C(=O)N[C@@H](Cc6ccc7ccccc7c6)C(=O)NCCCC[C@H](NC(=O)N[C@@H](CCC(=O)O)C(=O)O)C(=O)O)cc5)CC4)c3)CC2)cc1)C(=O)O)C(=O)O (stereo partly drawn) [DB-21] | < 10 | 1.54 | 150.54 | 3.645 | 0.465 | 77.54 |  |
| O=C(O)CC[C@H](NC(=O)N[C@@H](CCCCNC(=O)[C@H](Cc1ccc2ccccc2c1)NC(=O)[C@H]1CC[C@H](CNC(=O)CN2CCN(CC(=O)O)CCN(CC(=O)O)CCN(CC(=O)O)CC2)CC1)C(=O)O)C(=O)O [PSMA-617, reference compound] | < 10 |  |  |  |  |  | Kd [7]: 0.483 nM; kd [7]: 4.88e-05 s⁻¹; kon [7]: 101000 M⁻¹ s⁻¹ |
